Test results from US11912718B2, “Solid forms of a thienopyrimidinedione ACC inhibitor and methods for production thereof” (Gilead Apollo, LLC, priority 2016, dated 2024).
In brackets after ≈: the same amount, converted by molar mass.

What was measured:
ACC2 = conditions: enzyme isolated from rat, mouse, monkey and human; cited from earlier work
ACC1 [1] = conditions: enzyme isolated from rat, mouse, monkey and human; cited from earlier work
[2] = Dynamic vapor sorption (DVS); type: physicochemical; conditions: for state or form of the material after the DVS experiment: post DVS, XRPD
Excerpt: For DVS analysis as discussed in Example 8, approximately 10 milligrams of sample was placed into a mesh vapor sorption balance pan and loaded into a DVS-1 dynamic vapor sorption balance (Surface Measurement Systems). The sample was subjected to a ramping profile from 0-90% relative humidity (RH) at 10% increments, maintaining the sample at each step until a stable weight had been achieved (99.5% step completion). After completion of the sorption cycle, the sample was dried using the reverse procedure, lowering the RH to 0%. The weight change during the sorption/desorption cycles was plotted.
For Examples 2, 5, 7, 9, and 13 to 18, hygroscopicity was studied using dynamic vapor sorption (DVS, TA Q5000 SA, TA Instruments, New Castle, Del. or DVS, DVS Intrinsic, Surface Measurement Systems, London, UK). A sample (2-20 mg) was placed in an aluminum DVS pan and loaded on the sample side of the twin pan balance. The water sorption and desorption were studied as a function of relative humidity (RH) at 25° C. In 10% RH increments, the relative humidity was increased from 5% RH to 95% RH and then decreased back to 5%. […] Data analysis was performed using Universal Analysis 2000 Version 4.7A (TA Instruments, New Castle, Del.) for TA DVS runs and Microsoft Excel for SMS DVS runs.

Aqueous solubility = type: physicochemical
Protocol: Purity and concentration analyses were carried out using the following method: […]

[3] = Competitive slurrying of crystal forms; type: physicochemical
[4] = Log P and Log D determination (potentiometric); type: physicochemical; conditions: octanol/water, pH 7.4
Protocol: Log P analysis was performed using a potentiometric (pH-metric) method. The sample was titrated in various ratios of octanol/water in two titrations covering the pH range from 1.9 to 12.0 at concentrations of 1.0 to 0.6 mM. The shift of the aqueous pKa in the presence of octanol was used to determine log P of the neutral and anionic species. From this information a lipophilicity profile was constructed, such that that log D at a given pH could be determined.

[5] = Prolonged exposure to water (XRPD); type: physicochemical
[6] = Storage stability at 40° C. and 75% RH; type: physicochemical; conditions: 7 days at 40° C. and 75% RH
Protocol: 100 milligrams of Form IV of Compound 1, prepared according to the method of Example 5, was heated to 80° C. in an oven. Form VII was confirmed to be a desolvated form of Form IV, produced by drying the methanol solvate Form IV. […] Differential scanning calorimetry (DSC) results (FIG. 40) were consistent with thermogravimetric analysis. […] (peak at 141.4° C.), with the peak of the exotherm at 151.6° C. […] (peak at 195.0° C.). A smaller endotherm with a peak at 207.0° C. was likely to indicate formation of a higher melting crystalline form. […] The uptake between 40 and 70% RH could potentially be indicative of hydrate formation (tentatively assigned the name Form IX). […] NMR and IR data confirmed the structural integrity of Compound 1 present.

ACC1 [7] = target: ACC1 (Homo sapiens, UniProt Q13085); experiment: Inhibition of ACC1 by metabolites of Compound 1; type: biochemical
[8] = acetone, acetonitrile:water (10%), ethanol, ethyl acetate, ambient temperature and 60° C., XRPD and DSC

O=C(c1c2ccccc2cc2ccccc12)N1CCC(N2CCC[C@@H](C(=O)N3CCOCC3)C2)CC1 [CP-640186]
IC50 (ACC2): ~60 nM
IC50 (ACC1 [1]): ~60 nM

COc1ccccc1[C@H](Cn1c(=O)n(C(C)(C)C(=O)O)c(=O)c2c(C)c(-c3ncco3)sc21)OC1CCOCC1 [Form I]
weight gain (moisture sorption) ([2]; at about 95% RH): ~0.45%
state or form of the material after the DVS experiment [2]: had not changed forms
solubility (Aqueous solubility; aqueous medium, aqueous buffer, pH 5.5 and below): < 10 µg/mL
relative thermodynamic stability ([3]; between 22-60° C.): more thermodynamically stable form
logD [4]: 1.06

COc1ccccc1[C@H](Cn1c(=O)n(C(C)(C)C(=O)O)c(=O)c2c(C)c(-c3ncco3)sc21)OC1CCOCC1 [Form VIII]
result of competitive slurrying with Form I ([3]; 1:1 ratio in 6:4 ethanol:water, room temperature, about two weeks, XRPD): conversion to Form I
result of competitive slurrying with Form I [3, 8]: conversion to Form I

COc1ccccc1[C@H](Cn1c(=O)n(C(C)(C)C(=O)O)c(=O)c2c(C)c(-c3ncco3)sc21)OC1CCOCC1 [Form VII]
water uptake (DVS) ([2]; at 90% RH): > 4%
state or form of the material after the DVS experiment [2]: no change in form
solubility (Aqueous solubility; water): 109 µg/mL (≈ 191 µM)
result of competitive slurrying with Form I [3, 8]: conversion to Form I
form change on prolonged exposure to water [5]: conversion of Form VII to Form I
chemical and physical stability on storage [6]: chemically and physically stable
purity after storage [6]: 99.85%

COc1ccccc1[C@H](Cn1c(=O)n(C(C)(C)C(=O)OC2OC(C(=O)O)C(O)C(O)C2O)c(=O)c2c(C)c(-c3ncco3)sc21)OC1CCOCC1 (stereo partly drawn) [M+glucuronide conjugate]
IC50 (ACC1 [7]): 5 nM

Cc1c(-c2ncco2)sc2c1c(=O)n(C(C)(C)C(=O)O)c(=O)n2C[C@H](OC1CCOCC1)c1ccccc1O [M-CH3 metabolite]
IC50 (ACC1 [7]): 22 nM
